pIC50: −log10 of the molar value.
How the values were obtained:
[1] = target: Casein kinase I isoform gamma-1 (Homo sapiens) (UniProt Q9HCP0); assay: Selectivity interaction (KinomeScan (DiscoverX)) EUB0001079a CSNK1G1; settings: at 1 µM
[2] = target: T1, Phosphorylase b kinase gamma catalytic chain, liver/testis isoform (Homo sapiens) (UniProt P15735); assay: Selectivity interaction (KinomeScan (DiscoverX)) EUB0001619a PHKG2; settings: at 1 µM
T1 sequence (whole entry): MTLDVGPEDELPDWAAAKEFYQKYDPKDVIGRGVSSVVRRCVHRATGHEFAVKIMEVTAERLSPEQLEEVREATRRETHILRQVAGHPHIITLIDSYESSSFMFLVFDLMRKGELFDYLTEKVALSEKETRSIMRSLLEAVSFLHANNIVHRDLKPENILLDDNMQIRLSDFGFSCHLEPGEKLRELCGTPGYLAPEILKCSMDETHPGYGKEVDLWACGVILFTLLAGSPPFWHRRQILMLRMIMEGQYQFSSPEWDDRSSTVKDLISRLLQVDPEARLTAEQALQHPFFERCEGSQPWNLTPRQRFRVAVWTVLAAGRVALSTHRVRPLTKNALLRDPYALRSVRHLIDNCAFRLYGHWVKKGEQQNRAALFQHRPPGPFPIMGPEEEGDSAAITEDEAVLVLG

[3] = target: T2, Receptor-interacting serine/threonine-protein kinase 1 (Homo sapiens) (UniProt Q13546); assay: Selectivity interaction (KinomeScan (DiscoverX)) EUB0000045b RIPK1
T2 sequence (whole entry): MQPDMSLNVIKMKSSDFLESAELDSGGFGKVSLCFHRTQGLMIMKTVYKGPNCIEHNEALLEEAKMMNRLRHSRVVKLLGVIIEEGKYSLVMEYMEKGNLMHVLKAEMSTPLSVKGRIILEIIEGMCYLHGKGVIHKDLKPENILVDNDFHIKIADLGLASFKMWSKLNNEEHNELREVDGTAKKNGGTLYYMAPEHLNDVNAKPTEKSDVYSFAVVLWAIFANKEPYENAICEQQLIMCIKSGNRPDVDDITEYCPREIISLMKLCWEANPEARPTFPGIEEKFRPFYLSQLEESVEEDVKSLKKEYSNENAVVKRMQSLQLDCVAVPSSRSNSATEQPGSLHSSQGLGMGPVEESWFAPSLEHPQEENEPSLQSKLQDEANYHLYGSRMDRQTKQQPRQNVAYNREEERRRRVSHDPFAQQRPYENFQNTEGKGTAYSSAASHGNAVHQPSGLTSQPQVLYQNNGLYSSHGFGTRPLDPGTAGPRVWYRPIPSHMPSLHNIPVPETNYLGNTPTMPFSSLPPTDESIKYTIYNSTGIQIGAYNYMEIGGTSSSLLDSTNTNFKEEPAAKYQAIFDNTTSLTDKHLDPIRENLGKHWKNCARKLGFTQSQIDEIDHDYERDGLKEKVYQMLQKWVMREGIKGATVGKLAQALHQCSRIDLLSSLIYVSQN

[4] = target: Ribosomal protein S6 kinase alpha-2 (Homo sapiens) (UniProt Q15349); assay: Selectivity interaction (KinomeScan (DiscoverX)) EUB0000045b RPS6KA2
Ribosomal protein S6 kinase alpha-2 (Homo sapiens), sequence (Q15349 whole entry): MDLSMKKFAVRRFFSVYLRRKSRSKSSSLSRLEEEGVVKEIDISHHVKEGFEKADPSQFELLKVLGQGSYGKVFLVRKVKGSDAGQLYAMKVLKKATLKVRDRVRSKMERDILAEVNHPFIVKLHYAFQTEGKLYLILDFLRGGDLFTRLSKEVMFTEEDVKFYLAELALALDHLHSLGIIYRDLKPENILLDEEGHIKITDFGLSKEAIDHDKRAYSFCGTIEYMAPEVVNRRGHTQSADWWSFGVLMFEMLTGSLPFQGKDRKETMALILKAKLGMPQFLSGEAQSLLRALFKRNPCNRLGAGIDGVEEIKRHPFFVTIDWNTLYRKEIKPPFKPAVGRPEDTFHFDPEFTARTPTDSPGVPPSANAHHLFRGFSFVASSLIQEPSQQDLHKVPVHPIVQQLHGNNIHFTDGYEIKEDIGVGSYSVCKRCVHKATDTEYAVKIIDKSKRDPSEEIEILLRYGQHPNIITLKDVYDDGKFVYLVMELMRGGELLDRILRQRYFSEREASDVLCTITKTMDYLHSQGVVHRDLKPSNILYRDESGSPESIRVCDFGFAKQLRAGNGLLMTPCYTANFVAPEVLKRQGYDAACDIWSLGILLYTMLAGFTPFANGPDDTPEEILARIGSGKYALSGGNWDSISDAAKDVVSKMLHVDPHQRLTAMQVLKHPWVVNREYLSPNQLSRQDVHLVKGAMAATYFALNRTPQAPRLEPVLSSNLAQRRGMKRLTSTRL

[5] = target: T3, Mitogen-activated protein kinase kinase kinase 3 (Homo sapiens) (UniProt Q99759); assay: Selectivity interaction (Kinase panel (KiNativ target engagement assay in Jurkat cells)) EUB0001635a MAP3K3; type: cell-based; settings: Selectivity number of off-targets 0.0, Selectivity number of targets 233.0, Source Knowledge https://www.sciencedirect.com/science/article/pii/S2451945619300674?via%3Dihub, at 1 µM
T3 sequence (whole entry): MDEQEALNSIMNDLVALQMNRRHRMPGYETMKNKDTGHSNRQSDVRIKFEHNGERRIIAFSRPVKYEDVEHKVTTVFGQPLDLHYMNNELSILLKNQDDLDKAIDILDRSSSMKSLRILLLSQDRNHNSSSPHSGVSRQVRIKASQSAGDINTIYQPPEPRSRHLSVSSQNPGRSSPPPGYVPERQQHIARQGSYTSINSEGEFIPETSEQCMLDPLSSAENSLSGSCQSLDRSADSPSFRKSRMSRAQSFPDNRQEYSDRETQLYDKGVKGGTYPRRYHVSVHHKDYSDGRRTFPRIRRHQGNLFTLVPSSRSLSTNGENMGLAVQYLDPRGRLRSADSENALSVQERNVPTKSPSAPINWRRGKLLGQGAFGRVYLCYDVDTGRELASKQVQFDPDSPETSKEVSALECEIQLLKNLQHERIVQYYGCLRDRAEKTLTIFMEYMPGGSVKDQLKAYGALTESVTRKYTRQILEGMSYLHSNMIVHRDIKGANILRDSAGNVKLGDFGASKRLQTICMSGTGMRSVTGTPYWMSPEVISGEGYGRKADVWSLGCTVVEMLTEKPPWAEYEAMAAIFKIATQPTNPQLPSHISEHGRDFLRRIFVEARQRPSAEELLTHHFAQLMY

[6] = target: Serine/threonine-protein kinase 10 (Homo sapiens) (UniProt O94804); assay: Selectivity interaction (Kinase panel (KiNativ target engagement assay in Jurkat cells)) EUB0001635a STK10; type: cell-based; settings: Selectivity number of off-targets 0.0, Selectivity number of targets 233.0, Source Knowledge https://www.sciencedirect.com/science/article/pii/S2451945619300674?via%3Dihub, at 1 µM
Serine/threonine-protein kinase 10 (Homo sapiens), sequence (O94804 whole entry, looked up): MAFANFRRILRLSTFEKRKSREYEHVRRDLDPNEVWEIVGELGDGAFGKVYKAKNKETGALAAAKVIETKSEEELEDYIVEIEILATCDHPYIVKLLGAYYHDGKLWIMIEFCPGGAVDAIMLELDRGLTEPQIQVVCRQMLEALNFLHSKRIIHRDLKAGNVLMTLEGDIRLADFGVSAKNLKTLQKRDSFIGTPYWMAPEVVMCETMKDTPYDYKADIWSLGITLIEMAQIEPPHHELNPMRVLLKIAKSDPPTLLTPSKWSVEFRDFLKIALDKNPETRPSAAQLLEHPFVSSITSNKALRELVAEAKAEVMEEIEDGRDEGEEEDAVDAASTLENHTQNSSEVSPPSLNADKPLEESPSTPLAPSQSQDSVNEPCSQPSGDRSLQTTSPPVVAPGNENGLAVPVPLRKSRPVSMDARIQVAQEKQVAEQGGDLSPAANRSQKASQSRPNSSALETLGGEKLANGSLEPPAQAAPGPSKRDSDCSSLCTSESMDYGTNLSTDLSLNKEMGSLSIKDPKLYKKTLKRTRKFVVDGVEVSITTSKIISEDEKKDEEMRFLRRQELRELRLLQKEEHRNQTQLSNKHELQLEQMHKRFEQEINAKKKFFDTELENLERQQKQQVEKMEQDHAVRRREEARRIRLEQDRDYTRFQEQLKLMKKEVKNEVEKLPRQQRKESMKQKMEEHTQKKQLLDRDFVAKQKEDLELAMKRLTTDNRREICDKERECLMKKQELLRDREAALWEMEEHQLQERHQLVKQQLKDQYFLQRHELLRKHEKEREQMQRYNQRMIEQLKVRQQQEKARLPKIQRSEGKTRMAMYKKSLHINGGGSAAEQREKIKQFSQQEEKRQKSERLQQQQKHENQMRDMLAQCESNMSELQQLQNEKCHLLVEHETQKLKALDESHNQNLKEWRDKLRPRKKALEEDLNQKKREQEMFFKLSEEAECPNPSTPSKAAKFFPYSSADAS

[7] = target: TGF-beta receptor type-2 (Homo sapiens) (UniProt P37173); settings: at 10 µM
TGF-beta receptor type-2 (Homo sapiens), sequence (P37173 whole entry): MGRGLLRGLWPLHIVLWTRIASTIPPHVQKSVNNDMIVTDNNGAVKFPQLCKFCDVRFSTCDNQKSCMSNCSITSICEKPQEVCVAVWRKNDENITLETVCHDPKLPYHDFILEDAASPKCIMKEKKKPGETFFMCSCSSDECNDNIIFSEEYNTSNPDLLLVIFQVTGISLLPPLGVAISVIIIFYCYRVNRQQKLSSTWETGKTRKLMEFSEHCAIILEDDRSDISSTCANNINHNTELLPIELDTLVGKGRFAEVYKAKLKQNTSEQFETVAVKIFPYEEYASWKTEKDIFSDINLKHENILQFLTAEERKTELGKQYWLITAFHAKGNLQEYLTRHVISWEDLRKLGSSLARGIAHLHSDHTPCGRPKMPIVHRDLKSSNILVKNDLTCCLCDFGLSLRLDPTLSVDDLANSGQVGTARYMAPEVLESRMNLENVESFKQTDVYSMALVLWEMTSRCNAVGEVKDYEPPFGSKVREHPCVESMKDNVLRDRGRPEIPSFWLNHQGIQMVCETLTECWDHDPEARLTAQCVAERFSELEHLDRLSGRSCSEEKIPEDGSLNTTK

[8] = target: Eukaryotic translation initiation factor 2-alpha kinase 1 (Homo sapiens) (UniProt Q9BQI3); assay: Selectivity interaction (KinomeScan (DiscoverX)) EUB0001049a EIF2AK1; settings: at 1 µM
Eukaryotic translation initiation factor 2-alpha kinase 1 (Homo sapiens), sequence (Q9BQI3 whole entry): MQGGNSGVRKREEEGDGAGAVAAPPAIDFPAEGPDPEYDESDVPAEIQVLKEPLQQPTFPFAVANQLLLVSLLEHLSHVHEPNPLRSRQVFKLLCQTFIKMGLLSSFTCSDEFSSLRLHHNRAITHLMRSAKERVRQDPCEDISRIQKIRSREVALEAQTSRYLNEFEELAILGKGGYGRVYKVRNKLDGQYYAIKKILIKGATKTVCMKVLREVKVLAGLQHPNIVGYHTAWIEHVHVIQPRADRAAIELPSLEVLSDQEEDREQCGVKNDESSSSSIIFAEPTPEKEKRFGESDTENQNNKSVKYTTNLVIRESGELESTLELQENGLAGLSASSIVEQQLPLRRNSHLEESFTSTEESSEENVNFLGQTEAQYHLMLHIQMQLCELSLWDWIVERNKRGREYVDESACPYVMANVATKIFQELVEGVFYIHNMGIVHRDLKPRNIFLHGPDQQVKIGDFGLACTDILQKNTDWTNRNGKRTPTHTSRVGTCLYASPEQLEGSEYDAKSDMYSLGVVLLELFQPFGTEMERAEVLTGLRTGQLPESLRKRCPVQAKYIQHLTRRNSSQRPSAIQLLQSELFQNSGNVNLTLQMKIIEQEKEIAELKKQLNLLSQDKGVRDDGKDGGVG

[9] = Selectivity interaction (Androgen receptor agonist/antagonist FRET assay, rat recombinant ) EUB0000877a AR
[10] = target: CDK4/Cyclin D3 (Homo sapiens) (UniProt P11802+P30281); assay: (§1) Selectivity interaction (KinomeScan (DiscoverX)) EUB0000092b CDK4; type: protein-complex assay; settings: at 10 µM
[11] = target: Cyclin-dependent kinase 4/cyclin D1 (Homo sapiens) (UniProt P11802+P24385); assay: as §1; type: protein-complex assay; settings: at 10 µM

Casein kinase I isoform gamma-1 (Homo sapiens), sequence (Q9HCP0 whole entry, looked up, canonical isoform): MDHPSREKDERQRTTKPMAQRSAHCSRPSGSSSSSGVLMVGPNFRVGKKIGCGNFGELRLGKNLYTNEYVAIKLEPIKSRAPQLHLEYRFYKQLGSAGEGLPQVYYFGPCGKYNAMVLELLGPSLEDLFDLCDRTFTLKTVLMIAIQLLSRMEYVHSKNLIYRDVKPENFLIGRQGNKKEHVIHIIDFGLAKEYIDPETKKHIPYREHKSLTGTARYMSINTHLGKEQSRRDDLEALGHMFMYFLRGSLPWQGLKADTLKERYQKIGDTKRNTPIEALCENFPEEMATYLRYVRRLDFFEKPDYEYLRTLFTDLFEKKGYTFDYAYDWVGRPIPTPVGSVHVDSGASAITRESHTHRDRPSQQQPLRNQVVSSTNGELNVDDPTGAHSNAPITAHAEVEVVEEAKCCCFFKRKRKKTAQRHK

## Nc1cnc(N2CCc3cc(S(=O)(=O)Nc4c(F)cc(Cl)cc4F)cc(N4CCCC4=O)c32)nc1 [TP-020n]
[1]
  % of control: 97%

## N#Cc1cccc(-c2c[nH]c3ncnc(N4CCOCC4)c23)c1
[2]
  % of control: 40%

## C=CC(=O)Nc1cc(-n2c(=O)ccc3cnc4ccc(-c5ccc(NS(C)(=O)=O)cc5)cc4c32)ccc1C
[3]; at 1 µM
  % of control: 87%
[3]; at 10 µM
  % of control: 100%
[4]; at 1 µM
  % of control: 100%
[4]; at 10 µM
  % of control: 68%

## C=CC(=O)Nc1ccc(C(=O)Nc2[nH]nc3c2CN(C(=O)N[C@H](CN(C)C)c2ccccc2)C3(C)C)cc1
[5]
  % of engagement: 4.7%
[6]
  % of engagement: -1.6%

## Cc1cc([C@@H](C)Nc2ccccc2C(=O)O)c2nc(N3CCOCC3)cc(=O)n2c1 [AZD-6482]
[7]
  % of control: 95%

## COc1cc(Nc2nc(C)cc(-c3cnn4nc(OC)ccc34)n2)cc(C(F)(F)F)c1
[8]
  % of control: 89%

## CCC(=O)N1CC[C@H](Nc2ncnc3c2CN(c2cnc(OC)c(C(F)(F)F)c2)CC3)C1 [LENIOLISIB]
[9]
  pIC50: < 4.52

## CCC(=O)N1CCN(c2ccc(-n3c(=O)ccc4cnc5ccc(-c6cnc7ccccc7c6)cc5c43)cc2C(F)(F)F)CC1
[10]
  % of control: 87%
[11]
  % of control: 100%
